The results in this text go back to US11279676B2 (CHIA TAI TIANQING PHARMACEUTICAL GROUP CO., LTD., priority 2018, dated 2022).

Like-named read-outs stand apart in the source and are kept apart here.

Data set [1] in a line: Pharmacokinetic test in rats (relative bioavailability after gavage). Conditions: intragastric 20 mg/kg in gavage capsules; for Relative F: relative to crystalline form A (100). It counts as in vivo. The method, then:
The relative bioavailability of the compound of formula I in vivo was evaluated, after SD rats were gavaged with crystalline form A, crystalline form B, crystalline form D and crystalline form E of the compound of formula I.
Test samples: crystalline form A, crystalline form B, crystalline form D and crystalline form E of the compound of formula I filled in No. 9 gavage capsules separately
SD rats, weighing 180-200 g, after adaptation of 3-5 days, were randomly divided into 4 groups, with 4 rats in each group, and were respectively administered of crystalline form A, crystalline form B, crystalline form D and crystalline form E of the compound of formula I by intragastric administration at a dose of 20 mg/kg. The rats were fasted for 12 hours before administration and given food 4 hours after administration. Drinking water was free before and after the experiment and during the experiment.
After administration, the collection time points were 0.167 h (10 min), 0.5 h, 1 h, 2 h, 4 h, 6 h, 8 h, 10 h, and 24 h. About 0.3 mL of blood was collected from the orbital venous plexus and placed in a centrifuge tube containing EDTA-K2. Stored at 4° C. Centrifuged at a condition of 4° C., 4000 rpm, 10 min within 1 h, and stored at −20° C. to be tested.
Pipetted 50 μL of plasma sample to be tested, added 300 μL of acetonitrile solution containing internal standard, shook and mixed for 5 min, centrifuged at 13000 rpm for 10 min, took 30 μL of supernatant, added 150 μL of 50% acetonitrile aqueous solution, and pipetted 1 μL for LC/MS/MS analysis and determination.
Making use of liquid chromatography-tandem mass spectrometry (LC-MS/MS), with diazepam as an internal standard (IS), protein precipitation method was used to extract the analyte and internal standard from the plasma, and reverse phase chromatography column was adopted to separate compounds and internal standard. The analyte was quantified by electrospray ionization (ESI) mode of a tandem quadrupole mass spectrometer.

A short description of data set [2]: Hygroscopicity test (Chinese Pharmacopoeia 2015, General Chapter 9103). Particulars: Guidelines for Drug Moisture Test, Chinese Pharmacopoeia 2015 Chapter 9103. Format: physicochemical. As for the experimental part:
Took the crystalline form A, crystalline form B, crystalline form D and crystalline form E of the compound of formula I to conduct test according to the “Guidelines for Drug Moisture Test” of the Chinese Pharmacopoeia 2015 Edition Fourth General Chapter 9103, and respectively, the weight gain of samples due to hygroscopicity was calculated.

Setting [3] is: SD rats, plasma, mean of 4 rats, listed as Crystalline Form B of the Compound of Formula I.
Setting [4] is: SD, rat, plasma, po, 20 mg/kg, mean of 4 rats.
The mark [5] stands for this setting: SD rats, plasma, mean of 4 rats, listed as Crystalline Form E of the Compound of Formula I.
Where [6] appears, read: SD rats, plasma, mean of 4 rats, listed as Crystalline Form D of the Compound of Formula I.

A word on the Tmax: it is the time from dosing to the highest level. Consider `COc1cc2c(Oc3ccc(NC(=O)C4(C(=O)Nc5ccc(F)cc5)CC4)cc3F)ccnc2cc1OCC1(NC2CCCC2)CC1` [Example 2], for which, in data set [1] (setting [3]), the “MRT(0-t)” value came out at 6.72 h, the Tmax is given as 4.00 h and the t1/2 is 5.30 h. In addition, the “Relative F” value in data set [1] (SD rats, listed as Crystalline Form B of the Compound of Formula I) amounted to 134%.
One may read the AUC(0-inf) as total exposure, with the tail of the curve extrapolated. A low value points to low exposure. In general, AUC(0-t) refers to the area under the concentration-time curve up to a stated or last time point. A low value points to less exposure. What is called half-life is how long it takes for the measured level to halve. Read a low half-life as fast loss. Consider `COc1cc2c(Oc3ccc(NC(=O)C4(C(=O)Nc5ccc(F)cc5)CC4)cc3F)ccnc2cc1OCC1(NC2CCCC2)CC1` [Example 1], for which the “Weight Gain due to Hygroscopicity” value in data set [2] is on record as “Less than 0.2%”. Besides, the “Relative F” value in data set [1] (SD rats, listed as Crystalline Form A of the Compound of Formula I) stood at 100%. In data set [1] (setting [4]), this molecule had an AUC(0-inf) of 4960 ng·h/mL, an AUC(0-t) of 4700 ng·h/mL and a half-life of 4.93 h. The MRT last in data set [1] (SD, rat, plasma, po, 20 mg/kg, plasma, mean of 4 rats, read-out: MRT(0-t)) amounted to 8.51 h. For the same molecule, in data set [1] (SD, rat, plasma, po, 20 mg/kg, plasma, mean of 4 rats, read-out: Tmax), the Tmax was found to be 6 h.
As for `COc1cc2c(Oc3ccc(NC(=O)C4(C(=O)Nc5ccc(F)cc5)CC4)cc3F)ccnc2cc1OCC1(NC2CCCC2)CC1` [Example 5], in data set [1] (setting [5]), the “MRT(0-t)” value was determined as 7.30 h, the Tmax is given as 4.50 h and the t1/2 turned out to be 4.61 h. Further, in data set [1] (SD rats, listed as Crystalline Form E of the Compound of Formula I), the “Relative F” value is listed as 84%.
For `COc1cc2c(Oc3ccc(NC(=O)C4(C(=O)Nc5ccc(F)cc5)CC4)cc3F)ccnc2cc1OCC1(NC2CCCC2)CC1` [Example 4], in data set [1] (setting [6]), the “MRT(0-t)” value was determined as 8.73 h, the Tmax is on record as 6.00 h and the t1/2 was 5.20 h. Besides, in data set [1] (SD rats, listed as Crystalline Form D of the Compound of Formula I), the “Relative F” value is reported as 72%.
